# Publication PMC5298231, “The Malaria Parasite's Lactate Transporter PfFNT Is the Target of Antiplasmodial Compounds Identified in Whole Cell Phenotypic Screens” (PLoS Pathogens, 2017)
# Read-outs that look alike come from different tables or passages of the source.
# Test system: erythrocytes infected with 3D7 trophozoites
# Format: cell-based, Plasmodium falciparum
smiles,measurement,setting,value
COc1ccc2c(c1)OC(O)(C(F)(F)C(F)(F)F)CC2=O (centres unmarked) [MMV007839],"NADP+, Average",3hr,-0.3346
same,"Ornithine, Average",3hr,-0.1015
same,"Orotate, Average",3hr,-1.466
same,"Orotidine 5-Phosphate, Average",3hr,-1.489
same,"Orotidine, Average",3hr,-1.057
same,"PAEF, Average",3hr,-1.307
same,"PD, Average",3hr,0.2119
same,"PDAV, Average",3hr,0.3685
same,"PE, Average",3hr,0.9141
same,"PEE, Average",3hr,-0.2135
same,"PHF, Average",3hr,0.05129
same,"PPVQ, Average",3hr,-0.3492
same,"PVNF, Average",3hr,-0.8559
same,"PVQ, Average",3hr,0.3164
same,"PVQA, Average",3hr,-1.408
same,"Pantothenate, Average",3hr,-0.2954
same,"Phenylalanine, Average",3hr,-0.1326
same,"Phosphoenolpyruvate, Average",3hr,0.2604
same,"Pipecolate, Average",3hr,0.1041
same,"Proline, Average",3hr,-0.09895
same,"Pyridoxine, Average",3hr,-0.07403
same,"Pyruvate, Average",3hr,1.858
same,"Ribose-5-Phosphate, Average",3hr,0.8813
same,"S-Adenosyl-L-homocysteine, Average",3hr,-0.314
same,"SDGLA, Average",3hr,-0.3844
same,"SFGD, Average",3hr,-0.2955
same,"Sedoheptulose-1/7-Phosphate, Average",3hr,0.2199
same,"Serine, Average",3hr,0.166
same,"Succinate Semialdehyde, Average",3hr,-0.7119
same,"Succinate, Average",3hr,-0.2462
same,"TNVK, Average",3hr,-1.745
same,"Threonine, Average",3hr,0.01502
same,"Tryptophan, Average",3hr,-0.2359
same,"Tyrosine, Average",3hr,-0.01653
same,"UDP, Average",3hr,-0.7159
same,"UDP-N-acetyl-D-glucosamine, Average",3hr,0.05247
same,"UDP-glucose, Average",3hr,-0.07837
same,"UMP, Average",3hr,-0.2624
same,"Uracil, Average",3hr,-0.6081
same,"Valine, Average",3hr,-0.194
same,"Xanthine, Average",3hr,-0.464
same,"dADP, Average",3hr,-1.193
same,"dATP, Average",3hr,-0.03116
same,"dCDP, Average",3hr,0.3315
same,"dGMP, Average",3hr,0.1661
same,"dTMP, Average",3hr,0.1316
same,"dTTP, Average",3hr,-0.08156
same,"dUMP, Average",3hr,1.365
same,"myo-Inositol, Average",3hr,-0.258
same,"sn-Glycerol 3-Phosphate, Average",3hr,1.559
same,"sn-glycero-3-Phospho-1-inositol, Average",3hr,0.1698
same,"1-3 (2-3)-Bisphopshateglycerate, Average",6hr,0.3636
same,"2-Hydroxyglutarate, Average",6hr,-0.3824
same,"2-Ketoglutarate, Average",6hr,-0.4713
same,"3-Phoshoglycerate, Average",6hr,0.02516
same,"3-Phospho-serine, Average",6hr,-0.6364
same,"4-Aminobutanoate, Average",6hr,1.092
same,"5-Phosphoribosyl-Pyrophosphate, Average",6hr,0.556
same,"6-Phosphogluconate, Average",6hr,-0.3794
same,"ADP, Average",6hr,-0.3027
same,"AMP, Average",6hr,-0.04039
same,"ATLS, Average",6hr,-0.1601
same,"ATP, Average",6hr,-0.3608
same,"Acetyl-CoA, Average",6hr,-0.9886
same,"Acetyl-L-alanine, Average",6hr,-0.3969
same,"Adenine, Average",6hr,-0.7079
same,"Arginine, Average",6hr,0.2024
same,"Asparagine, Average",6hr,0.205
same,"Aspartate, Average",6hr,-0.08675
same,"CDP, Average",6hr,-0.2824
same,"CDP-ethanolamine, Average",6hr,-0.09908
same,"CMP, Average",6hr,0.2839
same,"CTP, Average",6hr,-0.5655
same,"Cholesteryl sulfate, Average",6hr,-0.1903
same,"Citrate, Average",6hr,-0.1627
same,"CoA, Average",6hr,-0.6499
same,"Cyclic AMP, Average",6hr,-1.349
same,"Cytidine, Average",6hr,0.1751
same,"DALT, Average",6hr,0.7209
same,"DEVG, Average",6hr,-0.06216
same,"DGLA, Average",6hr,0.8365
same,"DLS, Average",6hr,-0.1236
same,"Deoxycytidine, Average",6hr,1.626
same,"Dihydroorotate, Average",6hr,-1.004
same,"ESFG, Average",6hr,0.5044
same,"EVGG, Average",6hr,-0.2203
same,"Erythrose 4-Phosphate, Average",6hr,-0.7036
same,"FAD, Average",6hr,-0.616
same,"FMN, Average",6hr,-0.6137
same,"Farnesyl diphosphate, Average",6hr,-0.2783
same,"Folate, Average",6hr,-0.4942
same,"Fructose-1-6-Bisphosphate, Average",6hr,0.3974
same,"Fructose-6-Phosphate, Average",6hr,-0.1081
same,"GDP, Average",6hr,-0.8963
same,"GDP-mannose, Average",6hr,-1.076
same,"GMP, Average",6hr,-0.8795
same,"GTP, Average",6hr,-0.6956
same,"Geranylgeranyl pyrophosphate, Average",6hr,-0.7121
same,"Glucono-1-4-Lactone, Average",6hr,2.219
same,"Glucose-6-Phosphate, Average",6hr,-0.5083
same,"Glutamate, Average",6hr,-0.02563
same,"Glutamine, Average",6hr,1.089
same,"Glutathione Disulfide, Average",6hr,-0.1925
same,"Glutathione, Average",6hr,-0.4326
same,"Glyceraldehyde 3-Phosphate, Average",6hr,-1.148
same,"Glycerone Phosphate, Average",6hr,-0.3794
same,"HLD, Average",6hr,0.5581
same,"HVDD, Average",6hr,0.02571
same,"Histidine, Average",6hr,1.263
same,"Homoserine, Average",6hr,0.6347
same,"Hydroxy-L-proline, Average",6hr,-0.1227
same,"Hypoxanthine, Average",6hr,0.2056
same,"IDP, Average",6hr,0.2522
same,"IMP, Average",6hr,-0.2109
same,"Inosine, Average",6hr,0.5174
same,"Isoleucine, Average",6hr,0.1143
same,"LD, Average",6hr,0.1248
same,"Lactate, Average",6hr,2.505
same,"Leucine, Average",6hr,0.06585
same,"Lysine, Average",6hr,1.1316
same,"Malate, Average",6hr,-0.236
same,"Mannitol, Average",6hr,-0.1109
same,"Methionine, Average",6hr,-0.2224
same,"Myristic acid, Average",6hr,-0.7184
same,"N-Acetyl-glutamate, Average",6hr,-1.091
same,"N-Carbamoyl-L-Aspartate, Average",6hr,-1.386
same,"NAD+, Average",6hr,0.1336
same,"NADH, Average",6hr,-2.783
same,"NADP+, Average",6hr,-0.3285
same,"Ornithine, Average",6hr,-0.4177
same,"Orotate, Average",6hr,-1.6355
same,"Orotidine 5-Phosphate, Average",6hr,-1.249
same,"Orotidine, Average",6hr,-0.6749
same,"PAEF, Average",6hr,0.8061
same,"PD, Average",6hr,1.197
same,"PDAV, Average",6hr,1.2
same,"PE, Average",6hr,1.699
same,"PEE, Average",6hr,1.042
same,"PHF, Average",6hr,0.9826
same,"PPVQ, Average",6hr,-0.2514
same,"PVNF, Average",6hr,0.6194
same,"PVQ, Average",6hr,1.502
same,"PVQA, Average",6hr,-0.1116
same,"Pantothenate, Average",6hr,-0.4384
same,"Phenylalanine, Average",6hr,0.1437
same,"Phosphoenolpyruvate, Average",6hr,0.09862
same,"Pipecolate, Average",6hr,1.035
same,"Proline, Average",6hr,0.2232
same,"Pyridoxine, Average",6hr,0.219
same,"Pyruvate, Average",6hr,2.1785
same,"Ribose-5-Phosphate, Average",6hr,0.5462
same,"S-Adenosyl-L-homocysteine, Average",6hr,-0.1116
same,"SDGLA, Average",6hr,-0.7918
same,"SFGD, Average",6hr,-0.1482
same,"Sedoheptulose-1/7-Phosphate, Average",6hr,0.1885
same,"Serine, Average",6hr,0.02139
same,"Succinate Semialdehyde, Average",6hr,-0.438
same,"Succinate, Average",6hr,0.1816
same,"TNVK, Average",6hr,-0.1213
same,"Threonine, Average",6hr,0.6908
same,"Tryptophan, Average",6hr,-0.04867
same,"Tyrosine, Average",6hr,0.1841
same,"UDP, Average",6hr,-0.5016
same,"UDP-N-acetyl-D-glucosamine, Average",6hr,-0.184
same,"UDP-glucose, Average",6hr,0.0071
same,"UMP, Average",6hr,-0.08541
same,"Uracil, Average",6hr,-0.6376
same,"Valine, Average",6hr,0.1675
same,"Xanthine, Average",6hr,-0.5471
same,"dADP, Average",6hr,-0.4329
same,"dATP, Average",6hr,0.01926
same,"dCDP, Average",6hr,0.5589
same,"dGMP, Average",6hr,-0.355
same,"dTMP, Average",6hr,0.4667
same,"dTTP, Average",6hr,0.06317
same,"dUMP, Average",6hr,1.053
same,"myo-Inositol, Average",6hr,-0.254
same,"sn-Glycerol 3-Phosphate, Average",6hr,1.275
same,"sn-glycero-3-Phospho-1-inositol, Average",6hr,0.1242
same,1-3 (2-3)-diphopshateglycerate log2 ratio (+MMV007839/-MMV007839),"Av 1hr, 6 μM",0.8283
same,2-Hydroxyglutarate log2 ratio (+MMV007839/-MMV007839),"Av 1hr, 6 μM",-0.2432
same,2-Ketoglutarate log2 ratio (+MMV007839/-MMV007839),"Av 1hr, 6 μM",-0.436
same,3-Phosho-D-glycerate log2 ratio (+MMV007839/-MMV007839),"Av 1hr, 6 μM",0.004248
same,3-Phospho-serine log2 ratio (+MMV007839/-MMV007839),"Av 1hr, 6 μM",-0.2778
same,4-Aminobutanoate log2 ratio (+MMV007839/-MMV007839),"Av 1hr, 6 μM",1.193
same,5-Phosphoribosyl-1-pyrophosphate log2 ratio (+MMV007839/-MMV007839),"Av 1hr, 6 μM",0.3507
same,ADP log2 ratio (+MMV007839/-MMV007839),"Av 1hr, 6 μM",-0.09347
same,AMP log2 ratio (+MMV007839/-MMV007839),"Av 1hr, 6 μM",0.1805
same,ATLS log2 ratio (+MMV007839/-MMV007839),"Av 1hr, 6 μM",0.06136
same,ATP log2 ratio (+MMV007839/-MMV007839),"Av 1hr, 6 μM",-0.05715
same,Acetyl-CoA log2 ratio (+MMV007839/-MMV007839),"Av 1hr, 6 μM",-0.4647
same,Acetyl-L-alanine log2 ratio (+MMV007839/-MMV007839),"Av 1hr, 6 μM",0.1907
same,Adenine log2 ratio (+MMV007839/-MMV007839),"Av 1hr, 6 μM",-0.6208
same,Arginine log2 ratio (+MMV007839/-MMV007839),"Av 1hr, 6 μM",0.574
same,Asparagine log2 ratio (+MMV007839/-MMV007839),"Av 1hr, 6 μM",0.04802
same,Aspartic Acid log2 ratio (+MMV007839/-MMV007839),"Av 1hr, 6 μM",0.001665
same,CDP log2 ratio (+MMV007839/-MMV007839),"Av 1hr, 6 μM",-0.01089
same,CDP-ethanolamine log2 ratio (+MMV007839/-MMV007839),"Av 1hr, 6 μM",0.2765
same,CMP log2 ratio (+MMV007839/-MMV007839),"Av 1hr, 6 μM",0.1684
same,CTP log2 ratio (+MMV007839/-MMV007839),"Av 1hr, 6 μM",-0.2804
same,Cholesteryl sulfate log2 ratio (+MMV007839/-MMV007839),"Av 1hr, 6 μM",-0.2972
same,Citrate log2 ratio (+MMV007839/-MMV007839),"Av 1hr, 6 μM",-0.1229
same,CoA log2 ratio (+MMV007839/-MMV007839),"Av 1hr, 6 μM",-0.4384
same,Cyclic AMP log2 ratio (+MMV007839/-MMV007839),"Av 1hr, 6 μM",-0.8135
same,Cytidine log2 ratio (+MMV007839/-MMV007839),"Av 1hr, 6 μM",-0.7749
same,D-Glucono-1-4-lactone log2 ratio (+MMV007839/-MMV007839),"Av 1hr, 6 μM",1.593
same,DALT log2 ratio (+MMV007839/-MMV007839),"Av 1hr, 6 μM",-0.5028
same,DEVG log2 ratio (+MMV007839/-MMV007839),"Av 1hr, 6 μM",0.001555
same,DGLA log2 ratio (+MMV007839/-MMV007839),"Av 1hr, 6 μM",-0.4525
same,DLS log2 ratio (+MMV007839/-MMV007839),"Av 1hr, 6 μM",-0.423
same,Deoxycytidine log2 ratio (+MMV007839/-MMV007839),"Av 1hr, 6 μM",1.92
same,Dihydroorotate log2 ratio (+MMV007839/-MMV007839),"Av 1hr, 6 μM",-0.5278
